According to patent US20200016159A1, “N3-CYCLICALLY SUBSTITUTED THIENOURACILS AND USE THEREOF” (Bayer Aktiengesellschaft, priority 2016, published 2020):

Target: T1, human adenosine A2b receptor (Homo sapiens, UniProt P29275)
T1 sequence (P29275 1-332): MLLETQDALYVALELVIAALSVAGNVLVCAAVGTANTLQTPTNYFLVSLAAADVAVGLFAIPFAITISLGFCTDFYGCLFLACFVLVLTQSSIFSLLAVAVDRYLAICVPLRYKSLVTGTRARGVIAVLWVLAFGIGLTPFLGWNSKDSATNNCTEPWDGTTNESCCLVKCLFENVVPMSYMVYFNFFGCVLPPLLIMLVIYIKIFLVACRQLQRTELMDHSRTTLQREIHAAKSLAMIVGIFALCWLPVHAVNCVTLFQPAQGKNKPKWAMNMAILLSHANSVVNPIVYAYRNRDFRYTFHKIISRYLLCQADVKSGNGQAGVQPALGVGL
Assay: Cellular in vitro reporter gene test for A2b receptor activity (antagonism of NECA)
Format: cell-based
Set-up: expressed in transfected cells; host or cells: CHO-K1 (Chinese hamster ovary) with CRE-luciferase reporter
Details: recombinant CHO-K1 cells, CRE-luciferase reporter, co-incubation with EC50 concentration of NECA, 3 hours
Procedure, shortened: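 Antagonism measured as block of NECA-induced, cAMP/CRE-dependent luciferase expression in recombinant A2b CHO-K1 cells. NECA used at the EC50 set in a pre-experiment on each test day; luminescence detected after 3 h. Reported as IC50, partly averaged and rounded to two significant figures.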

Row | SMILES | IC50 [µM]
1 | CCC1CC1n1c(=O)c2c(C)c(CN3CCNC3=O)sc2n(CCOC)c1=O (single isomer, unassigned) [Example 301, 3-(2-Ethylcyclopropyl)-1-(2-methoxyethyl)-5-methyl-6-[(2-oxoimidazolidin-1-yl)methyl]thieno[2,3-d]pyrimidine-2,4(1H,3H)-dione] | 0.064
2 | CCC1CC1n1c(=O)c2c(C)c(CN3CCNC3=O)sc2n(CCOC)c1=O (single isomer, unassigned) [Example 302, 3-(2-Ethylcyclopropyl)-1-(2-methoxyethyl)-5-methyl-6-[(2-oxoimidazolidin-1-yl)methyl]thieno[2,3-d]pyrimidine-2,4(1H,3H)-dione] | 0.01
3 | CCC1CC1n1c(=O)c2c(C)c(Cn3nc[nH]c3=O)sc2n(CCOC)c1=O (single isomer, unassigned) [Example 304, 3-(2-Ethylcyclopropyl)-1-(2-methoxyethyl)-5-methyl-6-[(5-oxo-4,5-dihydro-H-1,2,4-triazol-1-yl)methyl]thieno[2,3-d]pyrimidine-2,4(1H,3H)-dione] | 0.35
4 | COCCn1c(=O)n(C2CC2OC)c(=O)c2c(C)c(CN3CCNC3=O)sc21 (single isomer, unassigned) [Example 307, 3-(2-Methoxycyclopropyl)-1-(2-methoxyethyl)-5-methyl-6-[(2-oxoimidazolidin-1-yl)methyl]thieno[2,3-d]pyrimidine-2,4(1H,3H)-dione] | 0.0081
5 | COCCn1c(=O)n(C2CC2OC)c(=O)c2c(C)c(CN3CCNC3=O)sc21 (single isomer, unassigned) [Example 308, 3-(2-Methoxycyclopropyl)-1-(2-methoxyethyl)-5-methyl-6-[(2-oxoimidazolidin-1-yl)methyl]thieno[2,3-d]pyrimidine-2,4(1H,3H)-dione] | 0.87
6 | COCCn1c(=O)n(C2CC2OC)c(=O)c2c(C)c(Cn3nc[nH]c3=O)sc21 (single isomer, unassigned) [Example 311, 3-(2-Methoxycyclopropyl)-1-(2-methoxyethyl)-5-methyl-6-[(5-oxo-4,5-dihydro-H-1,2,4-triazol-1-yl)methyl]thieno[2,3-d]pyrimidine-2,4(1H,3H)-dione] | 0.044
7 | Cc1c(Cn2nc[nH]c2=O)sc2c1c(=O)n(C1CC1)c(=O)n2CC1CC1(F)F (single isomer, unassigned; enantiomer 1) [Example 21, 3-Cyclopropyl-1-[(2,2-difluorocyclopropyl)methyl]-5-methyl-6-[(5-oxo-4,5-dihydro-1H-1,2,4-triazol-1-yl)methyl]thieno[2,3-d]pyrimidine-2,4(1H,3H)-dione (enantiomer 1)] | 0.053
8 | Cc1c(Cn2nc[nH]c2=O)sc2c1c(=O)n(C1CC1)c(=O)n2CC1CCC1(F)F (single isomer, unassigned; enantiomer 1) [Example 202, 3-Cyclopropyl-1-[(2,2-difluorocyclobutyl)methyl]-5-methyl-6-[(5-oxo-4,5-dihydro-1H-1,2,4-triazol-1-yl)methyl]thieno[2,3-d]pyrimidine-2,4(1H,3H)-dione (enantiomer 1)] | 0.14
9 | Cc1c(Cn2nc[nH]c2=O)sc2c1c(=O)n(C1CC1)c(=O)n2CC1CCC1(F)F (single isomer, unassigned; enantiomer 2) [Example 203, 3-Cyclopropyl-1-[(2,2-difluorocyclobutyl)methyl]-5-methyl-6-[(5-oxo-4,5-dihydro-1H-1,2,4-triazol-1-yl)methyl]thieno[2,3-d]pyrimidine-2,4(1H,3H)-dione (enantiomer 2)] | 0.16
10 | Cc1c(CN2CCNC2=O)sc2c1c(=O)n(C1CC1)c(=O)n2C [Example 1, 3-Cyclopropyl-1,5-dimethyl-6-[(2-oxoimidazolidin-1-yl)methyl]thieno[2,3-d]pyrimidine-2,4(1H,3H)-dione] | 0.02
11 | Cc1c(Cn2nc[nH]c2=O)sc2c1c(=O)n(C1CC1)c(=O)n2C [Example 2, 3-Cyclopropyl-1,5-dimethyl-6-[(5-oxo-4,5-dihydro-1H-1,2,4-triazol-1-yl)methyl]thieno[2,3-d]pyrimidine-2,4(1H,3H)-dione] | 0.081
12 | CCCCn1c(=O)n(C2CC2)c(=O)c2c(C)c(CN3CCNC3=O)sc21 [Example 3, 1-Butyl-3-cyclopropyl-5-methyl-6-[(2-oxoimidazolidin-1-yl)methyl]thieno[2,3-d]pyrimidine-2,4(1H,3H)-dione] | 0.0069
13 | Cc1c(CN2CCNC2=S)sc2c1c(=O)n(C1CC1)c(=O)n2CCCF [Example 6, 3-Cyclopropyl-1-(3-fluoropropyl)-5-methyl-6-[(2-thioxoimidazolidin-1-yl)methyl]thieno[2,3-d]pyrimidine-2,4(1H,3H)-dione] | 0.012
14 | Cc1c(CN2CCNC2=NC#N)sc2c1c(=O)n(C1CC1)c(=O)n2CCCF [Example 7, [1-{[3-Cyclopropyl-1-(3-fluoropropyl)-5-methyl-2,4-dioxo-1,2,3,4-tetrahydrothieno[2,3-d]pyrimidin-6-yl]methyl}imidazolidin-2-ylidene]cyanamide] | 0.018
15 | Cc1c(CN2CCNC2=O)sc2c1c(=O)n(C1CC1)c(=O)n2CCC(F)(F)F [Example 9, 3-Cyclopropyl-5-methyl-6-[(2-oxoimidazolidin-1-yl)methyl]-1-(3,3,3-trifluoropropyl)thieno[2,3-d]pyrimidine-2,4(1H,3H)-dione] | 0.0015
16 | Cc1c(CN2CCNC2=S)sc2c1c(=O)n(C1CC1)c(=O)n2CCC(F)(F)F [Example 10, 3-Cyclopropyl-5-methyl-6-[(2-thioxoimidazolidin-1-yl)methyl]-1-(3,3,3-trifluoropropyl)thieno[2,3-d]pyrimidine-2,4(1H,3H)-dione] | 0.0015
17 | Cc1c(CN2CCNC2=NC#N)sc2c1c(=O)n(C1CC1)c(=O)n2CCC(F)(F)F [Example 11, [1-{[3-Cyclopropyl-5-methyl-2,4-dioxo-1-(3,3,3-trifluoropropyl)-1,2,3,4-tetrahydrothieno[2,3-d]pyrimidin-6-yl]methyl}imidazolidin-2-ylidene]cyanamide] | 0.0033
18 | Cc1c(CN2CCNC(=O)C2=O)sc2c1c(=O)n(C1CC1)c(=O)n2CCC(F)(F)F [Example 13, 3-Cyclopropyl-6-[(2,3-dioxopiperazin-1-yl)methyl]-5-methyl-1-(3,3,3-trifluoropropyl)thieno[2,3-d]pyrimidine-2,4(1H,3H)-dione] | 0.004

Results, then the molecule that gave them:

Row | IC50 [µM] | SMILES
19 | 0.12 | CCC1CC1n1c(=O)c2c(C)c(Cn3nc[nH]c3=O)sc2n(CCOC)c1=O (single isomer, unassigned) [Example 305, 3-(2-Ethylcyclopropyl)-1-(2-methoxyethyl)-5-methyl-6-[(5-oxo-4,5-dihydro-H-1,2,4-triazol-1-yl)methyl]thieno[2,3-d]pyrimidine-2,4(1H,3H)-dione]
20 | 3.9 | COCCn1c(=O)n(C2CC2OC)c(=O)c2c(C)c(Cn3nc[nH]c3=O)sc21 (single isomer, unassigned) [Example 310, 3-(2-Methoxycyclopropyl)-1-(2-methoxyethyl)-5-methyl-6-[(5-oxo-4,5-dihydro-1H-1,2,4-triazol-1-yl)methyl]thieno[2,3-d]pyrimidine-2,4(1H,3H)-dione]
21 | 0.28 | Cc1c(Cn2nc[nH]c2=O)sc2c1c(=O)n(C1CC1)c(=O)n2CC1CC1(F)F (single isomer, unassigned; enantiomer 2) [Example 22, 3-Cyclopropyl-1-[(2,2-difluorocyclopropyl)methyl]-5-methyl-6-[(5-oxo-4,5-dihydro-1H-1,2,4-triazol-1-yl)methyl]thieno[2,3-d]pyrimidine-2,4(1H,3H)-dione (enantiomer 2)]
22 | 0.034 | CCCCn1c(=O)n(C2CC2)c(=O)c2c(C)c(Cn3nc[nH]c3=O)sc21 [Example 4, 1-Butyl-3-cyclopropyl-5-methyl-6-[(5-oxo-4,5-dihydro-H-1,2,4-triazol-1-yl)methyl]thieno[2,3-d]pyrimidine-2,4(1H,3H)-dione]
23 | 0.044 | Cc1c(CN2CCNC(=O)C2=O)sc2c1c(=O)n(C1CC1)c(=O)n2CCCF [Example 8, 3-Cyclopropyl-6-[(2,3-dioxopiperazin-1-yl)methyl]-1-(3-fluoropropyl)-5-methylthieno[2,3-d]pyrimidine-2,4(1H,3H)-dione]
24 | 0.0042 | COC(=O)N=C1NCCN1Cc1sc2c(c1C)c(=O)n(C1CC1)c(=O)n2CCC(F)(F)F [Example 12, Methyl [1-{[3-cyclopropyl-5-methyl-2,4-dioxo-1-(3,3,3-trifluoropropyl)-1,2,3,4-tetrahydrothieno[2,3-d]pyrimidin-6-yl]methyl}imidazolidin-2-ylidene]carbamate]
25 | 0.0037 | Cc1c(Cn2cc[nH]c2=O)sc2c1c(=O)n(C1CC1)c(=O)n2CCC(F)(F)F [Example 14, 3-Cyclopropyl-5-methyl-6-[(2-oxo-2,3-dihydro-1H-imidazol-1-yl)methyl]-1-(3,3,3-trifluoropropyl)thieno[2,3-d]pyrimidine-2,4(1H,3H)-dione]
26 | 0.003 | [2H]C([2H])(c1sc2c(c1C)c(=O)n(C1CC1)c(=O)n2CCC(F)(F)F)N1CCNC1=O [Example 16, 3-Cyclopropyl-5-methyl-6-[(2-oxoimidazolidin-1-yl)dideuteromethyl]-1-(3,3,3-trifluoropropyl)thieno[2,3-d]pyrimidine-2,4(1H,3H)-dione]
27 | 0.0041 | Cc1c(CN2CCNC2=O)sc2c1c(=O)n(C1CC1)c(=O)n2CC1CCC1 [Example 17, 1-(Cyclobutylmethyl)-3-cyclopropyl-5-methyl-6-[(2-oxoimidazolidin-1-yl)methyl]thieno[2,3-d]pyrimidine-2,4(1H,3H)-dione]
